{"source": "patent US20070238756A1", "about": "“COMBINATIONS OF DIPEPTIDYL PEPTIDASE IV INHIBITORS AND OTHER ANTIDIABETIC AGENTS FOR THE TREATMENT OF DIABETES MELLITUS” (priority 2000, published 2007)", "key": {"male ZDF fa/fa rats [1]": {"tested_on": "male ZDF fa/fa rats", "experiment": "Glucose tolerance test, plasma glucose 30 min after intraperitoneal glucose, in ZDF rats", "assay_type": "in vivo, rat", "conditions": "oral gavage BID for 7 days, i.p. glucose 30 min after last dose, blood 30 min after glucose, Compound (I) 5 mg/kg, Compound (II) 100 mg/kg, combination of both doses, n=6, control 695 ± 24", "protocol": "For glucose tolerance measurements, rats were treated with test compound for 7 days and given an intraperitoneal injection of a glucose solution in saline 30 minutes after the last dose of test compound.\n(§1) Rats were anesthetized with isofluorane for cardiac blood collection 30 minutes after administration of the glucose solution. Serum chemistry measurements were obtained using an automated chemistry analyzer (ILab600, Instrument Laboratory, Lexington, Mass.)."}, "DPP-IV": {"molecular_target": "T1, DPP-IV (Rattus norvegicus, UniProt P14740)", "T1 construct": "from tissue; host or cells: plasma of treated male ZDF fa/fa rats", "T1 sequence (P14740 37-767 limits assumed)": "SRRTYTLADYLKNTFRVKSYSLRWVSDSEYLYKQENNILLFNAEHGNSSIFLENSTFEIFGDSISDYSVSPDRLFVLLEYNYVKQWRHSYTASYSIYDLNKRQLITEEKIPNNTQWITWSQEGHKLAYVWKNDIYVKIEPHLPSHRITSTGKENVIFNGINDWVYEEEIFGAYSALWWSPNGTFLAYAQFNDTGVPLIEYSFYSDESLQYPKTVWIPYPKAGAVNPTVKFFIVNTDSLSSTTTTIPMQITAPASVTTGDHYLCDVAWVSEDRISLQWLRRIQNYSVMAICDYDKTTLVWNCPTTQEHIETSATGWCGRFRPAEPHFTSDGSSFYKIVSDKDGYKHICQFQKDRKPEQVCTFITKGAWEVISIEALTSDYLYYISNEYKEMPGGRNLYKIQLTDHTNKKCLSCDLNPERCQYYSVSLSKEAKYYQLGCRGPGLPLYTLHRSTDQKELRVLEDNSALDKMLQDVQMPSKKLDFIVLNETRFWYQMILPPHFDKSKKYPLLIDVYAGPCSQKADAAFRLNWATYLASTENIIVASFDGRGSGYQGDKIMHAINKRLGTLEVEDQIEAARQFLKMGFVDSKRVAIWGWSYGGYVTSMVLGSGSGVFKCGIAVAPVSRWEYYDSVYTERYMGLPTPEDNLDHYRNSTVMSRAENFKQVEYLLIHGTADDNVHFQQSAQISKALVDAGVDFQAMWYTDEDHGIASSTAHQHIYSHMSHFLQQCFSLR", "experiment": "Plasma DPP-IV activity in treated ZDF rats (Gly-Pro-AMC fluorogenic substrate)", "assay_type": "in vivo", "conditions": "male ZDF fa/fa rats, oral gavage BID for 7 days; Compound (I) 5 mg/kg, Compound (II) 100 mg/kg, combination of both doses; n=6; control 5544 ± 485", "protocol": "DPP-IV activity was measured using the fluorogenic substrate Gly-Pro-AMC ([…]) according to the manufacturer's specification (Enzyme System Products, Livermore Calif.). The substrate was mixed with 50 mM Tris, pH 7.8, in plasma (20% final v/v) and the samples were incubated for 5-20 min at 30 °C. DPP-IV activity was determined by measuring fluorescence using a cytofluor spectrofluoremeter with the filters set at 360 nm excitation and 460 nm emission."}, "male ZDF fa/fa rats [2]": {"tested_on": "male ZDF fa/fa rats", "experiment": "% HbA1C 7 day change in ZDF rats", "assay_type": "in vivo, rat", "conditions": "oral gavage BID for 7 days, Compound (I) 5 mg/kg, Compound (II) 100 mg/kg, combination of both doses, n=6, control 1.63 ± 1.12", "protocol": "Age and weight matched male ZDF fa/fa rats (Genetic Models, Inc., Indianapolis, Ind.) were housed individually at 72° F. and 50% relative humidity with a 12 h light/dark cycle and fed PMI 5008 Formulab Diet (PMI Nutrition International, Saint Louis, Mo.).\nas §1\nResults from each group (n=6) were averaged and compared to vehicle treated rats to determine significance and are shown in Table I."}}}
{"smiles": "CN(CCOc1ccc(CC2SC(=O)NC2=O)cc1)c1ccccn1", "note": "(centres unmarked) [Compound (I), 5-[4-[2-(N-methyl-N-(2-pyridyl)amino)ethoxy]benzyl]thiazolidine-2,4-dione]", "values": [{"measurement": "Plasma Glucose (30 min GTT)", "setting": "male ZDF fa/fa rats [1]", "result": "665 ± 40"}, {"measurement": "Plasma DPP-IV activity", "setting": "DPP-IV", "result": "4104 ± 399"}, {"measurement": "% HbA1C (7 day change)", "setting": "male ZDF fa/fa rats [2]", "result": "0.79 ± 0.54", "unit": "%"}]}
{"smiles": "CC[C@H](C)[C@H](N)C(=O)N1CCSC1", "note": "[Compound (II), isoleucine thiazolidide]", "values": [{"measurement": "Plasma Glucose (30 min GTT)", "setting": "male ZDF fa/fa rats [1]", "result": "684 ± 60"}, {"measurement": "% HbA1C (7 day change)", "setting": "male ZDF fa/fa rats [2]", "result": "1.81 ± 1.24", "unit": "%"}]}
